Data taken from ChEMBL document CHEMBL3091438, “Discovery and characterisation of hydrazines as inhibitors of the immune suppressive enzyme, indoleamine 2,3-dioxygenase 1 (IDO1)” (Bioorg Med Chem, 2013).

What was measured:
[1] = target: T1, Indoleamine 2,3-dioxygenase 1 (Homo sapiens, UniProt P14902); test: Inhibition of recombinant human IDO1 expressed in Escherichia coli EC538 using L-tryptophan as substrate at 0.1 mM after 1 hr relative to control
Target sequence in this assay (P14902 whole entry, looked up): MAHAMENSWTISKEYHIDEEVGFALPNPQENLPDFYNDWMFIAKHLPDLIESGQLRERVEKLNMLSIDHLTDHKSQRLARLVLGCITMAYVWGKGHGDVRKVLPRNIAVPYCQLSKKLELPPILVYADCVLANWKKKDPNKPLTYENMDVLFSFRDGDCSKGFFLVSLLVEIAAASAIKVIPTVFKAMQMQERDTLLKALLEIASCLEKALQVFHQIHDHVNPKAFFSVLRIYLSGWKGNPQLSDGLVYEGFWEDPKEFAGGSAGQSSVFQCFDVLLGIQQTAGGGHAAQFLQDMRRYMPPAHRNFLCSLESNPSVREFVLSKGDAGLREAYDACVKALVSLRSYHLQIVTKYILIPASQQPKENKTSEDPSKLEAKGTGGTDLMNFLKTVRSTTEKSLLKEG

[2] = target: T1, Indoleamine 2,3-dioxygenase 1; test: Inhibition of recombinant human IDO1 expressed in Escherichia coli EC538 using L-tryptophan as substrate after 1 hr
Target sequence in this assay (P14902 whole entry): as the sequence (P14902 whole entry, looked up) above

[3] = target: Indoleamine 2,3-dioxygenase 1 (Mus musculus, UniProt P28776); test: Inhibition of mouse IDO1 expressed in mouse LLTC cells using L-tryptophan as substrate after 24 hrs; assay type: cell-based
Sequence of Indoleamine 2,3-dioxygenase 1 (Mus musculus, UniProt P28776) (P28776 whole entry): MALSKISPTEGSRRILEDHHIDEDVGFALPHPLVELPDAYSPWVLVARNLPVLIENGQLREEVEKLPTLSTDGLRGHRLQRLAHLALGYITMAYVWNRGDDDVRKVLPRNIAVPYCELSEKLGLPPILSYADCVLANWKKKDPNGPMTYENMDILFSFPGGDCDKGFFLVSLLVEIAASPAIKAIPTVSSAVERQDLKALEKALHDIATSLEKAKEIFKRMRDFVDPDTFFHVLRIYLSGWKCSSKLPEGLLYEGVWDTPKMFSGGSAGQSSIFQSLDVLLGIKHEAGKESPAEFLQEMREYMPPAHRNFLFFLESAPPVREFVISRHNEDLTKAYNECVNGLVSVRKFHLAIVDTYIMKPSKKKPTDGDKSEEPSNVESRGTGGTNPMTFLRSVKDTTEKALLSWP

[4] = Cytotoxicity against mouse LLTC cells at IC50 by MTT assay; assay type: cell-based
[5] = target: T1, Indoleamine 2,3-dioxygenase 1; test: Inhibition of human IDO1 expressed in mouse LLTC cells using L-tryptophan as substrate after 24 hrs; assay type: cell-based
Target sequence in this assay (P14902 whole entry): as the sequence (P14902 whole entry, looked up) above

[6] = target: T1, Indoleamine 2,3-dioxygenase 1; test: Ratio of 2-hydrazinobenzothiazole IC50 to compound IC50 for recombinant human IDO1
Target sequence in this assay (P14902 whole entry, looked up): as above

inhibition [1]	IC50 [2]	Structure (SMILES)	further results
13%	–	O=C(O)/C=N/Nc1nc2ccccc2s1	–
86%	1.5 µM	NNc1nc2cc(Cl)ccc2s1	–
37%	–	Cc1ccc2nc(NN)sc2c1	–
-1%	–	NNC(=O)c1ccc2nc(NN)sc2c1	–
–	652 µM	c1ccc2scnc2c1 [BENZO[D]THIAZOLE]	–
–	> 500 µM	c1ccc2sc(SSc3nc4ccccc4s3)nc2c1 [BENZOTHIAZYL DISULFIDE]	–
2%	–	N#CCCN(N)c1nc2ccccc2s1	–
–	126 µM	Sc1nc2ccccc2s1 [2-MERCAPTOBENZOTHIAZOLE]	–
–	> 500 µM	Nc1nc2ccc([N+](=O)[O-])cc2s1	–
30%	–	CC(C)=NNc1nc2ccccc2s1	–
91%	8 µM	NNc1nc2ccccc2s1	IC50 [3]: 50.5 µM; Activity [4]: Non-toxic; IC50 [5]: 62.3 µM
46%	–	NNc1nc2cc(C(F)(F)F)ccc2s1	–

Structure (SMILES)	inhibition [1]	IC50 [2]	further results
NNc1ccccc1 [PHENYLHYDRAZINE]	–	0.25 µM	IC50 [3]: 0.2 µM; Ratio IC50 [6]: 32; Activity [4]: Non-toxic; IC50 [5]: 1.3 µM
